# Measurements reported in patent US6939876B2, “Prevention of addiction in pain management” (priority 2001, dated 2005).
# Legend:
# male Sprague-Dawley rats [1] = assay: Hot plate test (53 degrees Centigrade), latency to forepaw licking; assay type: in vivo; details: for Licking latency: mean ± S.E.M., 10 rats
# Protocol: The effect of GVG on the analgesic potency of morphine in male Sprague-Dawley rats was examined using the hot plate test. In this paradigm, animals are treated and placed on a hot plate at a temperature of 53 degrees Centigrade and the latency to licking of one of the forepaws was measured. This test is used as screen for agents that have moderate to significant analgesic action as these drugs will increase latency to forepaw licking.
# The rats were treated with either vehicle or GVG 2.5 hours prior to receiving either vehicle or morphine. Animals were given either vehicle or morphine 30 minutes prior to placing them on a hot plate at a constant temperature of 53 degrees Centigrade. Analgesic potency was assessed by measuring the latency to forepaw licking after placement on the hot plate. A total of 10 rats were examined for each treatment group.
# [2] = test system: extracellular DA concentrations in the nucleus accumbens (NAcc); assay: In vivo microdialysis: morphine-induced extracellular DA in the nucleus accumbens of freely moving rats; set-up: species or system Sprague-Dawley rats
# Excerpt: The effects of increased endogenous GABA activity on morphine-induced extracellular DA concentrations in the nucleus accumbens (NAcc) of freely moving rats was explored.
# All animals there used under an IACUC-approved protocol and with strict adherence to the NIH guidelines. Adult male Sprague-Dawley rats (200-300 g, Taconic Farms), housed in the animals care facility under 12:12 light/dark conditions, were placed into 6 groups (n=3-6), anesthetized and siliconized guide cannulae were stereotactically implanted into the right NAcc (2.0 mm anterior and 1.0 mm lateral to bregms, and 7.0 mm ventral to the cortical surface) and prefrontal cortex (PFC) at least 4 days prior to study. Microdialysis probes (2.0 mm, Bioanalytical Systems, BAS, West Lafayette. Ind.) were positioned within the guide cannulae and artificial cerebrospinal fluid (ACSF. 155.0 mM NA^−, 1.1 mM Ca^2−, 2.9 mM K^−, 132.76 mM Cl^−, and 0.83 mM Mg^2−) was administered through the probe using a CMA/100 microinfusion pump (BAS) at a flow rate of 2.0 μl/min.
# Animals were placed in bowls, and probes were inserted and flushed with ACSF overnight. On the day of the study. a minimum of three samples were injected to determine baseline stability. Samples were collected for 20 min. and injected on-line (CMA/160, BAS). The average dopamine concentration of these three stable samples was defined as control (100%). and all subsequent treatment values were transformed to a percentage of that control. Upon establishing a stable baseline, the morphine was administered by intraperitoneal (i.p.) injection. The high performance liquid chromatography (HPLC) system consists of a BAS reverse-phase column (3.0 μC-18), a BAS LC-4C electrochemical transducer with a dual/glassy carbon electrode set at 650 mV, a computer that analyzes data on-line using a commercial software package (Chromograph Bioanalytical Systems), and a dual pen chart recorder. The mobile phase (flow rate 1.0 ml/min) consisted of 7.0% methanol, 50 mM sodium phosphate monobasic, 1.0 mM sodium octyl sulfate, and 0.1 mm […], pH 4.0. DA eluted at 7.5 min.
# Gamma-vinyl GABA (GVG), an irreversible inhibitor of GABA-transaminase, was administered by intraperitoneal injection 2.5 hours prior to morphine (7 mg/kg). In all studies, animals were placed in the microdialysis bowls the night before the experiment and artificial cerebrospinal fluid (ACSF) was perfused through the microdialysis probes at a flow rate of 2.0 μl/min. At the end of each study, animals were sacrificed and their brains were removed and sectioned for probe placement verification
# Levels of extracellular DA were sampled from the NAcc continuously using a stereoaxically implanted probe. Morphine alone increases DA concentrations 50% above baseline in the NAcc (p<0.01, T=3.79).
# male Sprague-Dawley rats [3] = assay: Heroin-induced conditioned place preference (CPP), expression phase; assay type: in vivo; details: for Time spent in chambers, Paired / Time spent in chambers, Unpaired: mean ± S.E.M.
# Excerpt: In all rodent studies, male Sprague-Dawley rats were used (200-225 g. Taconic farms, Germantown, N.Y.). Animals were allowed to acclimate to the animal housing facility for at least 5 days prior to beginning the experiments. Conditioned place preference (CPP) chambers were used as previously described (Lepore et al., 1995), except instead of one chamber being entirely white and the other black, one chamber was entirely light blue with a stainless steel floor and the second chamber was light blue with horizontal black stripes (2.5 cm wide) spaced 3.8 cm apart with a smooth plexiglass floor. In all CPP studies with GVG, the saline volume was (1 ml/kg), and the heroin doses were 1.5 mg/kg. The saline, heroin and GVG were all injected intraperitonealy (i.p.). The conditioning procedure for the acquisition phase consisted of 12 sessions carried out consecutively over 12 days.
# The CPP pairings were: 1) saline/saline 2) saline/heroin 3) GVG/saline 4) saline/heroin and GVG. The animals in each group were randomly assigned to a 2×2 factorial design ,with one factor being the pairing chamber and the other factor being the order of conditioning. The animals that received either saline or heroin were injected and confined to the appropriate compartment for 30 minutes. The GVG injections were given 3 hours before saline or heroin injection and subsequent placement of the animals in the appropriate chamber. This was done as it has been shown that GABA levels reach maximal values 3 to 4 hours following GVG administration.
# On the test day (day 12), neither drugs nor saline were administered and the animal was allowed to move freely between both chambers for fifteen minutes. The amount of time spent in each chamber was recorded using an automated infrared beam electronically coupled to a timer. For the expression phase of CPP to heroin, the animals were habituated and conditioned to heroin as described in the acquisition studies, but no animals in the expression studies were given GVG on conditioning days. On the test day (day 12), the animals being tested in the expression phase, unlike the animals in the acquisition phase, received either saline or GVG 2.5 hours before they were placed in the apparatus and allowed free access to both chambers for 15 minutes.
# [4] = pairing Vehicle/Heroin (heroin 1.5 mg/kg i.p.), vehicle on test day
# [5] = pairing Vehicle/Heroin, GVG 300 mg/kg on test day (2.5 h before test)
# [6] = pairing Vehicle/Vehicle, GVG 300 mg/kg on test day
smiles,measurement,setting,value
"CN1CC[C@]23c4c5ccc(O)c4O[C@H]2[C@@H](O)C=C[C@H]3[C@H]1C5 [Morphine, morphine]",Licking latency,"male Sprague-Dawley rats [1]; pretreatment vehicle 1 ml/kg, treatment morphine 10 mg/kg 30 min before hot plate",27 ± 3.0 s
same,Increase of DA concentrations above baseline in the NAcc,"[2]; morphine alone, 7 mg/kg i.p., baseline = 100%, p<0.01",50%
"CC(=O)Oc1ccc2c3c1O[C@H]1[C@@H](OC(C)=O)C=C[C@H]4[C@@H](C2)N(C)CC[C@@]341 [Heroin, heroin]","Time spent in chambers, Paired",male Sprague-Dawley rats [3]; [4],10.9 ± 0.4 min
same,"Time spent in chambers, Unpaired",male Sprague-Dawley rats [3]; [4],4.1 ± 0.4 min
"C=CC(N)CCC(=O)O (stereo not drawn) [GVG, 4-amino-5-hexanoic acid]",Effect of GVG on the analgesic potency of morphine,male Sprague-Dawley rats [1]; GVG 300 mg/kg i.p. 2.5 hrs prior to morphine 10 mg/kg i.p.,does not alter the analgesic potency of morphine
same,Licking latency,"male Sprague-Dawley rats [1]; pretreatment GVG 300 mg/kg (2.5 h before), treatment morphine 10 mg/kg",27 ± 2.9 s
same,Licking latency,"male Sprague-Dawley rats [1]; pretreatment GVG 300 mg/kg (2.5 h before), treatment vehicle 1 ml/kg",17 ± 1.4+ sec
same,Inhibition of the DA response to morphine in the NAcc,[2]; GVG 150 mg/kg i.p. 2.5 hours prior to morphine 7 mg/kg,no significant inhibition
same,Attenuation of the DA response to morphine in the NAcc,"[2]; GVG 300 mg/kg i.p. 2.5 hours prior to morphine 7 mg/kg, p<0.01",62%
same,Attenuation of the DA response to morphine in the NAcc,"[2]; GVG 500 mg/kg i.p. 2.5 hours prior to morphine 7 mg/kg, p<0.001",67%
same,Effect on expression of heroin-induced CPP,male Sprague-Dawley rats [3]; GVG 300 mg/kg on test day,blocked the expression of heroin-induced CPP
same,"Time spent in chambers, Paired",male Sprague-Dawley rats [3]; [5],6.6 ± 0.7 min
same,"Time spent in chambers, Unpaired",male Sprague-Dawley rats [3]; [5],8.4 ± 0.7 min
same,"Time spent in chambers, Paired",male Sprague-Dawley rats [3]; [6],7.4 ± 0.3 min
same,"Time spent in chambers, Unpaired",male Sprague-Dawley rats [3]; [6],7.6 ± 0.3 min
